Measurements taken from patent US11034654B2, “2,3-dihydroisoindole-1-carboxamides useful as ROR-gamma modulators” (AstraZeneca AB, priority 2017, dated 2021).

Legend:
[1] = target: T1, RORγ ligand binding domain (Homo sapiens, UniProt P51449); test: RORγ radioligand competition binding assay (SPA); conditions: competition with tritiated 2-(4-(ethylsulfonyl)phenyl)-N-(4-(2-(methoxymethyl)phenyl)thiophen-2-yl)acetamide (25 nM), hRORγ LBD
From the text: RORγ Radioligand Competition Binding Assay The aim of this assay is to identify compounds which bind to the RORγ ligand binding domain, by competing with tritiated 2-(4-(ethylsulfonyl)phenyl)-N-(4-(2-(methoxymethyl)phenyl)thiophen-2-yl)acetamide. Human RORγ (Ligand Binding Domain (RORγ LBD) was expressed in E. coli (BL21DE3 Star) as a fusion protein: N-6×HN-Avi-GST-TCS-hRORγ LBD (S258-K518) subcloned into pET24a(+). The LBD (258-518) is underlined in the protein sequence: The scintillation proximity assay (SPA) was run in white polystyrene flat-bottom 384-well plates (Greiner, cat. No. 781075). Assays were carried out in 40 μl reaction volumes. Various concentrations of test ligands in 0.4 microlitres of DMSO were added to assay plates using an acoustic liquid dispenser. 4 nM purified N-(HN)6-GST-TCS-hRORγ (258-518) was mixed with 40 micrograms Yttrium oxide (YOx) glutathione SPA imaging beads in assay buffer (20 mM Tris, 150 mM NaCl, 10% Glycerol, 0.25% CHAPS, 1 mM TCEP) prior to adding 30 microlitres to test ligands. Assay plates were incubated for one hour at room temperature before adding 10 microlitres tritiated 2-(4-(ethylsulfonyl)phenyl)-N-(4-(2-(methoxymethyl)phenyl)thiophen-2-yl)acetamide to test plates in assay buffer (final concentration, 25 nM). Test plates were incubated for 16 hours and read using a LEADseeker Multimodality imaging instrument. The raw data was analysed and IC50 and Ki values for the compounds were calculated using Genedata Screener software. Raw data was transformed to % effect using equation 1: Compound % effect=100*[(X−min)/(max−min)], where X represents the normalized value for the compound based on the Min (vehicle) and Max (reference compound) inhibition controls. The concentration of test ligand that inhibited radioligand binding by 50% (i.e., the IC50) was calculated by plotting the % effect versus test ligand concentration and fitting the data using the Genedata Screener Smart fit algorithm. Ki is calculated from the IC50 value using the equation Ki=IC50/1+[L]/Kd) where [L]=25 nmol/L and Kd=17 nmol/L

[2] = target: T1, RORγ ligand binding domain; test: RORγ co-factor recruitment assay (FRET); type: biochemical; design: made in house; host or cells: E. coli BL21DE3 Star; conditions: inhibition of recruitment of SRC-1 peptide (NCOA1_677-700) to hRORγ LBD, HTRF read-out
From the text: RORγ Co-Factor Recruitment Assay A high throughput coactivator binding assay for the identification of inverse agonists of the recruitment of peptide SRC-1 (NCOA1_677-_700) to the RORγ ligand binding domain was established. The ligand binding domain (LBD) of human RORγ was expressed in E. coli (BL21DE3 Star) as a fusion protein: N-6×HN-MBP-Avi-TCS-hRORγLBD(P260-K518) subcloned into pET24a(+). The LBD (P260-K518) is underlined in the protein sequence: The assay was run in black 384 well plates (Greiner cat no: 784900). Various concentrations of test ligands in 0.1 microlitres DMSO were dispensed to assay plates using an Echo acoustic dispenser. Two pre-mixes were prepared and incubated for 1 h at room temp in the dark. Pre-mix 1 comprised 100 nM Protein (Biotinylated HN-Avi-MBP-TCS-hRORγ (258-518)) and 60 nM Streptavidin APC in assay buffer, 50 mM MOPS pH7.4, 50 mM KF, 0.003% (w/v) CHAPS, 10 mM DTT and 0.01% (w/v) BSA and pre-mix 2 comprised 160 nM biotinylated SRC-1 peptide (NCOA1-677-700) and 20 nM Europium-W8044 labelled Streptavidin in assay buffer. Five microlitres of pre-mix 2 was dispensed to assay plates containing 0.1 microlitres of test compound and was incubated for 15 min prior to adding five microlitres of pre-mix 1. Plates were incubated at rt for 1 hour in the dark, prior to reading in a Pherastar multi-mode plate reader using HTRF filter set (ex 320, em 612 and 665). The FRET signal at 665 nm was divided by the signal at 612 nm and multiplied by 10,000 to generate a signal ratio value for each well. The raw data was transformed to % effect using the equation: Compound % effect=100*[(X−min)/(max−min)], where X represents the normalized value for the compound based on the Min (vehicle) and Max (reference compound) inhibition control. The concentration of test ligand that inhibited the activity by 50% (i.e., the IC50) was calculated by plotting the % effect versus test ligand concentration and fitting the data using the Genedata Screener Smart fit algorithm.

human TH17 cells = test: Inhibition of IL-17 release from human TH17 cells; type: cell-based; conditions: 96 h; isolated human TH17 cells cultured 4 days, IL-17A in supernatant by HTRF; read-out: pIC50 IL-17 release (converted)
From the text: Inhibition of IL-17 Release from Human TH17 Cells
This test is designed to screen compounds for their inhibitory effect on the release of IL-17 from isolated and cultured human TH17 cells.
Peripheral blood mononuclear cells (PBMC) were isolated from heparin treated human whole blood from healthy donors by density gradient centrifugation. TH17 cells (CD4+CXCR3−CCR6+) were enriched using a human TH17 Cell Enrichment Kit (Stemcell Technologies) according to the manufacturer's protocol. The isolated TH17 cells were activated with aCD3aCD28 beads (MACS Miltenyi) and cultured in X-Vivo15 medium (Lonza) supplemented with L-glutamine, β-mercaptoethanol and a cytokine cocktail consisting of; IL-2, IL-23, IL-1β, IL-6, TGF-β. Cells were seeded at 8000 cells/well in a 384-plate (Corning, #3707) in the presence of compounds or DMSO and cultured for 4 days (37° C., 5% CO2). On day 4 supernatants were collected and IL-17A was measured using a Human IL-17 HTRF Assay kit (Cisbio Bioassays) according to the manufacturer's protocol. The IC50 values for the tested compounds was calculated using Genedata Screener® software (Genedata) using the following calculation method; Compound % effect=100*[(X−min)/(max−min)], where X represents the normalized value for the compound based on the Min (DMSO) and Max (compound 3-(1,3-benzodioxol-5-yl)-1-(3,5-dimethylpiperidin-1-yl)-3-(2-hydroxy-4,6-dimethoxyphenyl)propan-1-one at 10 μM, described in J. R. Hu et al. ACS Med. Chem. Lett. 2013, 4, 79-84) inhibition controls. Results

Structure (SMILES)	IC50 [1]	IC50 [2]	IC50 (human TH17 cells)
CC(=O)N1Cc2cc(S(C)(=O)=O)ccc2C1C(=O)Nc1ccc(C(N2CCOCC2)(C(F)(F)F)C(F)(F)F)cc1 (stereo not drawn) [Example 23, 2-Acetyl-N-{4-[1,1,1,3,3,3-hexafluoro-2-(morpholin-4-yl)propan-2-yl]phenyl}-5-(methylsulfonyl)-2,3-dihydro-1H-isoindole-1-carboxamide]	20 nM	39.8 nM	15.8 nM
CC(=O)N1Cc2cc(S(C)(=O)=O)ccc2C1C(=O)Nc1ccc(C(c2nnn(C)n2)(C(F)(F)F)C(F)(F)F)cc1 (stereo not drawn) [Example 30, 2-Acetyl-N-{4-[1,1,1,3,3,3-hexafluoro-2-(2-methyl-2H-tetrazol-5-yl)propan-2-yl]phenyl}-5-(methylsulfonyl)-2,3-dihydro-1H-isoindole-1-carboxamide]	39.8 nM	126 nM	25.1 nM
CC(=O)N1Cc2cc(S(C)(=O)=O)ccc2C1C(=O)Nc1ccc(C(CCO)(C(F)(F)F)C(F)(F)F)cc1 (stereo not drawn) [Example 33, 2-Acetyl-5-(methylsulfonyl)-N-{4-[1,1,1-trifluoro-4-hydroxy-2-(trifluoromethyl)butan-2-yl]phenyl}-2,3-dihydro-1H-isoindole-1-carboxamide]	251 nM	158 nM	200 nM
CC(=O)N1Cc2cc(S(C)(=O)=O)ccc2C1C(=O)Nc1ccc(C(Cc2nc(C)no2)(C(F)(F)F)C(F)(F)F)cc1 (stereo not drawn) [Example 34, 2-Acetyl-N-(4-{1,1,1,3,3,3-hexafluoro-2-[(3-methyl-1,2,4-oxadiazol-5-yl)methyl]propan-2-yl}phenyl)-5-(methylsulfonyl)-2,3-dihydro-1H-isoindole-1-carboxamide]	20 nM	126 nM	20 nM
CC(=O)N1Cc2cc(S(C)(=O)=O)ccc2C1C(=O)Nc1ccc(C(CCF)(C(F)(F)F)C(F)(F)F)cc1 (stereo not drawn) [Example 35, 2-Acetyl-5-(methylsulfonyl)-N-{4-[1,1,1,4-tetrafluoro-2-(trifluoromethyl)butan-2-yl]phenyl}-2,3-dihydro-1H-isoindole-1-carboxamide]	10 nM	39.8 nM	6.31 nM
CC(=O)N1Cc2cc(S(C)(=O)=O)ccc2C1C(=O)Nc1ccc(C(CC#N)(C(F)(F)F)C(F)(F)F)cc1 (stereo not drawn) [Example 36, 2-Acetyl-N-{4-[2-(cyanomethyl)-1,1,1,3,3,3-hexafluoropropan-2-yl]phenyl}-5-(methylsulfonyl)-2,3-dihydro-1H-isoindole-1-carboxamide]	158 nM	100 nM	63.1 nM
CCOC(=O)CC(c1ccc(NC(=O)C2c3ccc(S(C)(=O)=O)cc3CN2C(C)=O)cc1)(C(F)(F)F)C(F)(F)F (stereo not drawn) [Example 37, Ethyl 3-[4-({[2-acetyl-5-(methylsulfonyl)-2,3-dihydro-1H-isoindol-1-yl]carbonyl}amino)phenyl]-4,4,4-trifluoro-3-(trifluoromethyl)butanoate]	15.8 nM	100 nM	25.1 nM
CC(=O)N1Cc2cc(S(C)(=O)=O)ccc2C1C(=O)Nc1ccc(C(CC(=O)NC2CC2)(C(F)(F)F)C(F)(F)F)cc1 (stereo not drawn) [Example 38, 2-Acetyl-N-{4-[4-(cyclopropylamino)-1,1,1-trifluoro-4-oxo-2-(trifluoromethyl)butan-2-yl]phenyl}-5-(methylsulfonyl)-2,3-dihydro-1H-isoindole-1-carboxamide]	794 nM	631 nM	1000 nM

More lines, in order of falling IC50 [1], values ahead:

IC50 [1]	IC50 [2]	IC50 (human TH17 cells)	Structure (SMILES)
1000 nM	1000 nM	794 nM	CC(=O)N1Cc2cc(S(C)(=O)=O)ccc2C1C(=O)Nc1ccc(C(NCCCS(C)(=O)=O)(C(F)(F)F)C(F)(F)F)cc1 (stereo not drawn) [Example 22, 2-Acetyl-N-[4-(1,1,1,3,3,3-hexafluoro-2-{[3-(methylsulfonyl)propyl]amino}propan-2-yl)phenyl]-5-(methylsulfonyl)-2,3-dihydro-1H-isoindole-1-carboxamide]
794 nM	200 nM	200 nM	COC(=O)CC(c1ccc(NC(=O)C2NCc3cc(S(C)(=O)=O)ccc32)cc1)(C(F)(F)F)C(F)(F)F (stereo not drawn) [Example 31, Methyl 4,4,4-trifluoro-3-[4-[(5-methylsulfonylisoindoline-1-carbonyl)amino]phenyl]-3-(trifluoromethyl)butanoate]
794 nM	316 nM	> 3160 nM	CC(=O)N1Cc2cc(S(C)(=O)=O)ccc2C1C(=O)Nc1ccc(C(CC(=O)NCCF)(C(F)(F)F)C(F)(F)F)cc1 (stereo not drawn) [Example 41, 2-Acetyl-5-(methylsulfonyl)-N-(4-{1,1,1-trifluoro-4-[(2-fluoroethyl)amino]-4-oxo-2-(trifluoromethyl)butan-2-yl}phenyl)-2,3-dihydro-1H-isoindole-1-carboxamide]
794 nM	316 nM	794 nM	CC(=O)N1Cc2cc(S(C)(=O)=O)ccc2C1C(=O)Nc1ccc(C(CC(=O)N(C)C)(C(F)(F)F)C(F)(F)F)cc1 (stereo not drawn) [Example 42, 2-Acetyl-N-{4-[4-(dimethylamino)-1,1,1-trifluoro-4-oxo-2-(trifluoromethyl)butan-2-yl]phenyl}-5-(methylsulfonyl)-2,3-dihydro-1H-isoindole-1-carboxamide]
25.1 nM	50.1 nM	15.8 nM	COC(=O)CC(c1ccc(NC(=O)C2c3ccc(S(C)(=O)=O)cc3CN2C(C)=O)cc1)(C(F)(F)F)C(F)(F)F (stereo not drawn) [Example 32, Methyl 3-[4-({[2-acetyl-5-(methylsulfonyl)-2,3-dihydro-1H-isoindol-1-yl]carbonyl}amino)phenyl]-4,4,4-trifluoro-3-(trifluoromethyl)butanoate]
